From patent US8987287B2, “Spirocyclic morphinans and their use” (Purdue Pharma L.P., priority 2012, dated 2015) come the findings set out here.

Molecules are shown by their SMILES.

The target of assay [1] is μ-opioid receptor (Homo sapiens (Human), UniProt P35372). Kind of assay: μ-opioid receptor [35S]GTPγS functional assay, U-2 OS cells. It is filed as biochemical. Conditions: for Emax: relative to DAMGO, U-2 OS cells. How it is done: μ-Opioid Receptor Functional Assay Procedures: [^35S]GTPγS functional assays were conducted using freshly thawed μ-receptor membranes prepared in-house from a cell line expressing recombinant μ opioid receptor in a HEK-293, CHO or U-2 OS cell background, or purchased from a commercial source (Perkin Elmer, Shelton, Conn.; or DiscovRx, Fremont, Calif.). Assay reactions were prepared by sequentially adding the following reagents to binding buffer (100 mM NaCl, 10 mM MgCl2, 20 mM HEPES, pH 7.4) on ice (final concentrations indicated): membrane protein (0.026 mg/mL), saponin ([…]), GDP ([…]) and [^35S]GTPγS (0.20 nM; Perkin Elmer, Shelton, Conn.). The prepared membrane solution (190 μl/well) was transferred to 96-shallow well polypropylene plates containing 10 μl of 20× concentrated stock solutions of the agonist [D-Ala^2, N-methyl-Phe^4 Gly-ol^5]-enkephalin (DAMGO) prepared in dimethyl sulfoxide (DMSO). Plates were incubated for 30 min at about 25° C. with shaking. Reactions were terminated by rapid filtration onto 96-well Unifilter GF/B filter plates (Perkin Elmer, Shelton, Conn.) using a 96-well tissue harvester (Perkin Elmer, Shelton, Conn.) followed by three filtration washes with 200 μl of ice-cold wash buffer (10 mM NaH2PO4, 10 mM Na2HPO4, pH 7.4). Filter plates were subsequently dried at 50° C. for 2-3 hours. BetaScint scintillation cocktail (Perkin Elmer, Shelton, Conn.) was added (50 μl/well) and plates were counted using a Packard Top-Count for 1 min/well. Data were analyzed using the sigmoidal dose-response curve fitting functions in GraphPad PRISM v. 3.0, or an in-house function for non-linear, sigmoidal dose-response curve-fitting.
μ-Opioid Receptor Functional Data: μ GTP EC50 is the concentration of a compound providing 50% of the maximal response for the compound at a μ-opioid receptor.
μ GTP Emax (%) is the maximal effect elicited by a compound relative to the effect elicited by DAMGO, a standard μ agonist. Generally, the μ GTP Emax (%) value measures the efficacy of a compound to treat or prevent pain or other Conditions.
(§1) The following TABLE 3 provides results on the activity response of certain Compounds of the Invention at the μ- and κ-opioid receptors determined as described above using U-2 OS cells.
On the technique in general: Binding of GTPγS marks nucleotide exchange on a G protein.

In assay [2] the target is κ opioid receptor (Homo sapiens (Human), UniProt P41145). Nature of the assay: κ-opioid receptor [35S]GTPγS functional assay, U-2 OS cells. It is filed as biochemical. Conditions: for Emax: relative to U69,593, U-2 OS cells. How it is done:
κ-Opioid Receptor Functional Assay Procedures: Functional [^35S]GTPγS binding assays were conducted as follows. κ opioid receptor membrane solution was prepared by sequentially adding final concentrations of 0.026 μg/μl κ membrane protein (in-house), 10 μg/mL saponin, 3 μM GDP and 0.20 nM [^35S]GTPγS to binding buffer (100 mM NaCl, 10 mM MgCl2, 20 mM HEPES, pH 7.4) on ice. The prepared membrane solution (190 μl/well) was transferred to 96-shallow well polypropylene plates containing 10 μl of 20× concentrated stock solutions of agonist prepared in DMSO. Plates were incubated for 30 min at a temperature of about 25° C. with shaking. Reactions were terminated by rapid filtration onto 96-well Unifilter GF/B filter plates (Perkin Elmer, Shelton, Conn.) using a 96-well tissue harvester (Packard) and followed by three filtration washes with 200 μl ice-cold binding buffer (10 mM NaH2PO4, 10 mM Na2HPO4, pH 7.4). Filter plates were subsequently dried at 50° C. for 2-3 hours. Fifty μl/well scintillation cocktail (Perkin Elmer, Shelton, Conn.) was added and plates were counted in a Packard Top-Count for 1 min/well.
κ-Opioid Receptor Functional Data: κ GTP EC50 is the concentration of a compound providing 50% of the maximal response for the compound at a κ receptor.
κ GTP Emax (%) is the maximal effect elicited by a compound relative to the effect elicited by U69,593.
as §1

The EC50 is the concentration that produces a half-maximal response. Low values mean an effect from little substance, high ones a need for much substance. A word on the Emax: it is the size of the effect at its maximum, as opposed to the concentration needed. Take `O=C1NC(=O)[C@@]2(CC[C@@]3(O)[C@H]4Cc5ccc(O)cc5[C@@]3(CCN4CC3CCCCC3)C2)N1` [Compound 27, (4bR,4′S,8aS,9R)-11-(cyclohexylmethyl)-3,8a-dihydroxy-5,7,8,8a,9,10-hexahydrospiro[9,4b-(epiminoethano)phenanthrene-6,4′-imidazolidine]-2′,5′-dione]: in assay [1], the EC50 amounted to 12800 ± 3860 nM and the Emax was found to be 21.3 ± 1.86%. For the same compound, in assay [2], a half-maximal effect (EC50) was put at 2080 ± 406 nM and the Emax was 33.3 ± 3.53%.

As for `CC(C)CCN1CC[C@]23C[C@]4(CC[C@@]2(O)[C@H]1Cc1ccc(O)cc13)NC(=O)NC4=O` [Compound 28, (4bR,4′S,8aS,9R)-3,8a-dihydroxy-11-isopentyl-5,7,8,8a,9,10-hexahydrospiro[9,4b-(epiminoethano)phenanthrene-6,4′-imidazolidine]-2′,5′-dione], the EC50 in assay [1] is 154 ± 20.1 nM; in assay [2] it was 604 ± 112 nM. Moreover, the Emax was 113 ± 2.78% in assay [1] and 88 ± 4.36% in assay [2].

Consider `CCN1CC[C@]23C[C@]4(CC[C@@]2(O)[C@H]1Cc1ccc(O)cc13)NC(=O)NC4=O` [Compound 29], for which, in assay [1], the concentration for a half-maximal effect (EC50) came out at 1260 ± 206 nM and the Emax was 83.8 ± 0.8%. Also, in assay [2], the concentration giving a half-maximal response (EC50) turned out to be 250 ± 95 nM and the maximal response (Emax) stood at 102 ± 2.19%.

In assay [1], `O=C1NC(=O)[C@@]2(CC[C@@]3(O)[C@H]4Cc5ccc(O)cc5[C@@]3(CCN4CCF)C2)N1` [Compound 30] came in with an EC50 of 102 ± 30.2 nM and a maximal response (Emax) of 56.7 ± 4.33%. In assay [2], this compound registered an EC50 of 38.2 ± 12 nM and an Emax of 99.7 ± 1.67%.

As for `CCN1C(=O)N[C@]2(CC[C@@]3(O)[C@H]4Cc5ccc(O)cc5[C@@]3(CCN4CC)C2)C1=O` [Compound 31, (4bR,4′S,8aS,9R)-1′,11-diethyl-3,8a-dihydroxy-5,7,8,8a,9,10-hexahydrospiro[9,4b-(epiminoethano)phenanthrene-6,4′-imidazolidine]-2′,5′-dione], in assay [1], the EC50 turned out to be 1510 ± 309 nM and the Emax is 88.9 ± 0.94%. For the same compound, in assay [2], a half-maximal response (EC50) required 445 ± 197 nM and the Emax amounted to 102 ± 4.48%.

In assay [1], `O=C1NC(=O)[C@@]2(CC[C@@]3(O)[C@H]4Cc5ccc(O)cc5[C@@]3(CCN4CC(F)(F)F)C2)N1` [Compound 32, (4bR,4′S,8aS,9R)-3,8a-dihydroxy-11-(2,2,2-trifluoroethyl)-5,7,8,8a,9,10-hexahydrospiro[9,4b-(epiminoethano)phenanthrene-6,4′-imidazolidine]-2′,5′-dione] registered a half-maximal effective concentration (EC50) above 20000 nM and a maximal response (Emax) of 1.5%. Further, in assay [2], the EC50 is 523 ± 180 nM and the Emax is 104 ± 1.2%.

On to `O=C1NC(=O)[C@@]2(CC[C@@]3(O)[C@H]4Cc5ccc(O)cc5[C@@]3(CCN4CCC(F)(F)F)C2)N1` [Compound 33, (4bR,4′S,8aS,9R)-3,8a-dihydroxy-11-(3,3,3-trifluoropropyl)-5,7,8,8a,9,10-hexahydrospiro[9,4b-(epiminoethano)phenanthrene-6,4′-imidazolidine]-2′,5′-dione], for which, in assay [1], the EC50 came to 272 ± 18 nM and the maximum response (Emax) came out at 39.7 ± 1.86%. In assay [2], this compound came in with an EC50 of 393 ± 13.5 nM and a maximal effect (Emax) of 98.3 ± 1.45%.

For the compound `O=C1NC(=O)[C@@]2(CC[C@@]3(O)[C@H]4Cc5ccc(O)cc5[C@@]3(CCN4CCCC(F)(F)F)C2)N1` [Compound 34, (4bR,4′S,8aS,9R)-3,8a-dihydroxy-11-(4,4,4-trifluorobutyl)-5,7,8,8a,9,10-hexahydrospiro[9,4b-(epiminoethano)phenanthrene-6,4′-imidazolidine]-2′,5′-dione], in assay [1], the EC50 amounted to 869 ± 131 nM and the Emax stood at 47 ± 2.08%. In assay [2], the half-maximal effective concentration (EC50) came out at 2240 ± 120 nM and the Emax was found to be 87.7 ± 3.28%.

As to `O=C1NC(=O)[C@@]2(CC[C@@]3(O)[C@H]4Cc5ccc(O)cc5[C@@]3(CCN4CCc3ccccc3)C2)N1` [Compound 35, (4bR,4′S,8aS,9R)-3,8a-dihydroxy-11-phenethyl-5,7,8,8a,9,10-hexahydrospiro[9,4b-(epiminoethano)phenanthrene-6,4′-imidazolidine]-2′,5′-dione], in assay [1], the EC50 worked out at 1.23 ± 0.093 nM and the Emax came to 104 ± 3.51%. In assay [2], this compound returned a concentration giving a half-maximal response (EC50) of 270 ± 44.1 nM and an Emax of 84 ± 1.53%.

In assay [1], `O=C1NC(=O)[C@@]2(CC[C@@]3(O)[C@H]4Cc5ccc(O)cc5[C@@]3(CCN4CCCc3ccccc3)C2)N1` [Compound 36, (4bR,4′S,8aS,9R)-3,8a-dihydroxy-11-(3-phenylpropyl)-5,7,8,8a,9,10-hexahydrospiro[9,4b-(epiminoethano)phenanthrene-6,4′-imidazolidine]-2′,5′-dione] came in with an EC50 of 442 ± 21.2 nM and an Emax of 77.7 ± 3.53%. In assay [2], this compound yielded an EC50 of 2500 ± 277 nM and an Emax of 84.3 ± 2.6%.

As to `C=C(C)CCN1CC[C@]23C[C@]4(CC[C@@]2(O)[C@H]1Cc1ccc(O)cc13)NC(=O)NC4=O` [Compound 37, (4bR,4′S,8aS,9R)-3,8a-dihydroxy-11-(3-methylbut-3-en-1-yl)-5,7,8,8a,9,10-hexahydrospiro[9,4b-(epiminoethano)phenanthrene-6,4′-imidazolidine]-2′,5′-dione], in assay [1], the EC50 was determined as 18.7 ± 2.53 nM and the Emax worked out at 92 ± 5%. In assay [2], this compound came in with an EC50 of 33.5 ± 9.67 nM and an Emax of 101 ± 1.76%.

In assay [1], `O=C1NC(=O)[C@@]2(CC[C@@]3(O)[C@H]4Cc5ccc(O)cc5[C@@]3(CCN4CC(F)F)C2)N1` [Compound 38, (4bR,4′S,8aS,9R)-11-(2,2-difluoroethyl)-3,8a-dihydroxy-5,7,8,8a,9,10-hexahydrospiro[9,4b-(epiminoethano)phenanthrene-6,4′-imidazolidine]-2′,5′-dione] returned an EC50 above 20000 nM and an Emax of 12 ± 1%. In assay [2], this compound returned an EC50 of 441 ± 144 nM and an Emax of 99 ± 3.51%.

In assay [1], `CCN1C(=O)N[C@]2(CC[C@@]3(O)[C@H]4Cc5ccc(O)cc5[C@@]3(CCN4CC3CC3)C2)C1=O` [Compound 45, (4S,4b′R,8a′S,9′R)-11′-(cyclopropylmethyl)-1-ethyl-3′,8a′-dihydroxy-8′,8a′,9′,10′-tetrahydro-5′H,7′H-spiro[imidazolidine-4,6′-[9,4b](epiminoethano)phenantrene]-2,5-dione] registered an EC50 of 6.47 ± 0.69 nM and an Emax of 45.9 ± 3.04%. In assay [2], this compound came in with an EC50 of 4.34 ± 0.74 nM and an Emax of 96.3 ± 1.33%.

Regarding `CCN1C(=O)N(CC)[C@]2(CC[C@@]3(O)[C@H]4Cc5ccc(O)cc5[C@@]3(CCN4CC3CC3)C2)C1=O` [Compound 46, (4S,4b′R,8a′S,9′R)-11′-(cyclopropylmethyl)-1,3-diethyl-3′,8a′-dihydroxy-8′,8a′,9′,10′-tetrahydro-5′H,7′H-spiro[imidazolidine-4,6′-[9,4b](epiminoethano)phenantrene]-2,5-dione], in assay [1], the concentration for a half-maximal effect (EC50) came to 1.74 ± 0.22 nM and the Emax is 10.7 ± 0.33%. In assay [2], this compound came in with an EC50 of 1.57 ± 0.19 nM and a maximal response (Emax) of 96.7 ± 3.67%.

With `O=C1N[C@]2(CC[C@@]3(O)[C@H]4Cc5ccc(O)cc5[C@@]3(CCN4CC3CC3)C2)C(=O)N1Cc1ccc(O)cc1` [Compound 47, (4S,4b′R,8a′S,9′R)-11′-(cyclopropylmethyl)-3′,8a′-dihydroxy-1-(4-hydroxybenzyl)-8′,8a′,9′,10′-tetrahydro-5′H,7′H-spiro[imidazolidine-4,6′-[9,4b](epiminoethano)-phenantrene]-2,5-dione], the EC50 was found to be 4.66 ± 0.89 nM in assay [1] and 1.21 ± 0.11 nM in assay [2]. Moreover, the values for the Emax in assay [1] and in assay [2] were 49 ± 1.53% and 104 ± 3.67%, respectively.
